Test results as given in the supplement of paper PMC12317010.

Test: collision cross section in nitrogen (drift tube, single-field); higher = larger gas-phase ion size
[1] = ion type: [M+Na], ion source: ESI, ion mode: Positive
[2] = ion type: [M+H], ion source: ESI, ion mode: Positive
[3] = ion type: [M-H], ion source: ESI, ion mode: Negative
[4] = ion type: [M+H], ion source: APCI, ion mode: Positive
[5] = ion type: [M+], ion source: APCI, ion mode: Positive
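Note: chemical standards at 10 µM analysed by drift tube IMS-QTOF MS in about 3.95 torr nitrogen, mean of duplicate injections differing ≤1%, mass error below 10 ppm.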

Structure (SMILES) | collision cross section in nitrogen [1] [Å²] | collision cross section in nitrogen [2] [Å²] | collision cross section in nitrogen [3] [Å²] | collision cross section in nitrogen [4] [Å²] | collision cross section in nitrogen [5] [Å²]
c1cc(C(c2ccc(OCC3CO3)cc2)c2ccc(OCC3CO3)cc2)ccc1OCC1CO1 (configuration not stated) | 199.3 | – | – | – | –
C1CC(COCC2CO2)CCC1COCC1CO1 (configuration not stated) | 160.1 | – | – | – | –
CC(=O)NC1(c2cccc(F)c2)CCN(CC[C@@]2(c3ccc(Cl)c(Cl)c3)CN(c3ccccc3)C(=O)CO2)CC1 | 250.7 | 243.8 | – | – | –
CC(C)CCCCCCCOC(=O)c1ccccc1C(=O)OCCCCCCCC(C)C | 225.8 | – | – | – | –
Cc1cc(SCc2sc(-c3ccc(C(F)(F)F)c(F)c3)nc2C)ccc1OCC(=O)O | – | 194.2 | 199.5 | 194.4 | –
Cc1cc(NC(=O)C(=O)O)cc(C)c1Oc1ccc(O)c2c1CCC2 | – | – | 199.1 | – | –
Cc1ccc2oc(CN(Cc3ccccc3)C(=O)Nc3c(F)cc(F)cc3F)c(-c3ccc(Cl)cc3)c2c1 | 226.8 | – | 225.2 | – | –
CC1=NN(c2ccc(S(=O)(=O)O)cc2)C(=O)C1 | – | 162.7 | 159.1 | – | –
CC1COCc2cc3c(cc21)C(C)(C)C(C)C3(C)C (configuration not stated) | – | – | – | – | 163.2
CCC(C)N(C)C(=O)c1cc2ccccc2c(-c2ccccc2Cl)n1 (configuration not stated) | 192.8 | 185.9 | – | 186.6 | –
CCC(Cc1ccccc1)(C(=O)c1ccc(N2CCOCC2)cc1)N(C)C (configuration not stated) | – | 195.7 | – | 195.7 | –
CCCCOC(=O)COC(=O)c1ccccc1C(=O)OCCCC | 193.5 | – | – | – | –
CCCCOC(=O)[C@@H](C)Oc1ccc(Oc2ccc(C(F)(F)F)cn2)cc1 | 194.5 | 195.5 | – | – | –
CCCOc1ccc(S(=O)(=O)N2CCN(CC)CC2)cc1-c1nc2c(CC)n(Cc3ccccn3)nc2c(=O)[nH]1 | 256.9 | 236.5 | 238.6 | 237 | –
CCN(CC)c1ccc2cc(-c3nc4cc(S(N)(=O)=O)ccc4o3)c(=O)oc2c1 | 219.6 | 205.5 | 218.6 | – | –
CC[C@@H]1C[C@H](N(Cc2cc(C(F)(F)F)cc(C(F)(F)F)c2)C(C)=O)c2cc(C(F)(F)F)ccc2N1C(=O)OC(C)C | 233.5 | – | 231.1 | – | –
CN(C)C(=O)Nc1cccc(OC(=O)NC(C)(C)C)c1 | 175 | – | – | – | –
CNC(=O)ON=C(CSC)C(C)(C)C | 160.6 | – | – | – | –
CNCc1cc(F)ccc1Oc1ccc(Cl)c(Cl)c1 | – | 173.4 | – | – | –
CN[C@H]1CC[C@@H](c2ccc(Cl)c(Cl)c2)c2ccc(S(N)(=O)=O)cc21 | – | – | 197.2 | – | –
COc1cc(C(C)C)c2c(c1)S(=O)(=O)N(COc1cc(=O)n3cccc(OCCN4CCCCC4)c3n1)C2=O | 230.1 | 226.9 | – | 228 | –

Structure (SMILES) | collision cross section in nitrogen [1] [Å²] | collision cross section in nitrogen [2] [Å²] | collision cross section in nitrogen [3] [Å²] | collision cross section in nitrogen [4] [Å²] | collision cross section in nitrogen [5] [Å²]
COCc1nnc(-c2ccc[n+]([O-])c2)n1-c1c(Cl)c(Cl)cc2[nH]c(=O)c(=O)[nH]c12 | 193.2 | 193.1 | 190.9 | – | –
COc1cc(S(=O)(=O)O)c(C)cc1N=Nc1c(O)ccc2cc(S(=O)(=O)O)ccc12 | – | – | 214.8 | – | –
CSc1ccc(Oc2ccc(S(N)(=O)=O)cc2CN(C)C)cc1C | 208.1 | 195.7 | 196.9 | 196.5 | –
Cc1c(C2(c3cc(Br)c(O)c(Br)c3C)c3ccccc3OS2(=O)=O)cc(Br)c(O)c1Br | – | – | 217.4 | – | –
Cc1cc(Cl)ccc1OCC(=O)O | – | – | 146.1 | – | –
N#CC(CCc1ccc(Cl)cc1)(Cn1cncn1)c1ccccc1 (configuration not stated) | – | 183.1 | – | 183.9 | –
N#C[C@@H]1CC(F)(F)CN1C(=O)CNC1CC2CCC(C1)N2c1ncccn1 (some centres not stated) | 182.7 | 176.9 | – | 176.9 | –
O=C(NS(=O)(=O)/C=C/c1cccs1)c1ccc(F)cc1Br | 189 | – | 178 | – | –
N#Cc1ccc(C2CCCc3cncn32)cc1 (configuration not stated) | – | 157.2 | – | 157 | –
N#Cc1ccc(N(CC(N)=O)CC(F)(F)F)cc1C(F)(F)F | – | – | 163.7 | – | –
NC(=O)N1C(=O)C(C(=O)c2cc(Cl)cs2)c2cc(F)c(Cl)cc21 (configuration not stated) | – | – | 173.7 | – | –
Nc1c(S(=O)(=O)O)cc(Br)c2c1C(=O)c1ccccc1C2=O | – | – | 169.4 | – | –
NCC1(Cc2noc(=O)[nH]2)CCCCC1 | – | 154 | 151.4 | – | –
O=C(NS(=O)(=O)/C=C/c1ccccc1)c1ccc(F)cc1Cl | 188.9 | – | 177.6 | – | –
O=S(=O)(c1ccc2c(c1)CCCN2)N1CCC[C@@H]2CCCC[C@H]21 | 195.9 | 178.5 | 179.6 | 179.5 | –
O=[N+]([O-])c1ccc(C=Cc2ccc([N+](=O)[O-])cc2S(=O)(=O)O)c(S(=O)(=O)O)c1 | – | – | 182.4 | – | –
O=C(O)CCN(C1(C(=O)NO)CCCC1)S(=O)(=O)c1ccc(Oc2ccc(F)cc2)cc1 | 211 | – | 198.1 | – | –
O=C(NO)C1(NS(=O)(=O)c2ccc(Oc3ccc(F)cc3)cc2)CCOCC1 | 206.8 | – | 184.6 | – | –
O=C(O)C1(c2ccc3c(c2)OC[C@H](Cc2ccc(-c4ccccc4)cc2)[C@H]3O)CCCC1 | 202.9 | – | – | – | –
COC(=O)N(C(=O)N1COC2(C(=O)OC)Cc3cc(Cl)ccc3C2=N1)c1ccc(OC(F)(F)F)cc1 (racemic) [(+/-)-Indoxacarb] | 220.6 | 205.6 | – | – | –
O=C1CC(c2ccc(O)cc2)Oc2cc(O)cc(O)c21 (racemic) [(+/-)-Naringenin] | – | – | 163.9 | – | –

Results, then the compound that gave them:

collision cross section in nitrogen [1] [Å²] | collision cross section in nitrogen [2] [Å²] | collision cross section in nitrogen [3] [Å²] | collision cross section in nitrogen [4] [Å²] | collision cross section in nitrogen [5] [Å²] | Structure (SMILES)
184.5 | – | – | – | – | C=CC(=O)OCCn1c(=O)n(CCOC(=O)C=C)c(=O)n(CCOC(=O)C=C)c1=O
– | – | 142.1 | – | – | CC(C)(C)c1n[nH]c(=S)n(N)c1=O
– | 220.3 | 222.7 | 220.2 | 218.2 | CC(C)(c1ccccc1)c1ccc(Nc2ccc(C(C)(C)c3ccccc3)cc2)cc1
151.6 | – | – | – | – | CC(C)(CO)COC(=O)C(C)(C)CO
207.5 | – | 199.5 | – | – | CC(C)c1cccc(C(C)C)c1NC(=O)NS(=O)(=O)c1cc(C(C)(C)O)co1
– | 198.2 | 198 | – | – | CC1(C)CCC(C)(C)c2cc(C(=O)Nc3ccc(C(=O)O)cc3)ccc21
– | 176.7 | 183.7 | 176.6 | – | Cc1c(-c2cccnc2)c2ccccc2n1CCCCC(=O)O
190.9 | 186.3 | 191.5 | – | – | Cc1oc2c(NC(=O)c3c(Cl)cccc3Cl)cccc2c1C(C)(C)O
236.4 | – | 237.8 | 233.4 | 234.2 | Cc1cc(CCC(=O)OCCOCCOCCOC(=O)CCc2cc(C)c(O)c(C(C)(C)C)c2)cc(C(C)(C)C)c1O
161.9 | 161.7 | 156.5 | – | – | CC1=NN(c2cccc(S(=O)(=O)O)c2)C(=O)C1
191.7 | 186.1 | 190.5 | – | – | CCCc1c(OCCCOc2ccc(OCC(=O)O)cc2)ccc(C(C)=O)c1O
233.4 | 241.2 | – | – | – | CCN(Cc1cccnc1)C(=O)c1cccc(Cl)c1[C@]1(C)C(=O)N(Cc2ccc(OC)cc2OC)c2ccc(Cl)cc21
169.8 | 155.1 | 159.8 | – | – | CC[C@H](C)[C@@H](C(=O)O)n1sc2ccccc2c1=O
182.6 | – | 178.1 | – | – | CNCc1ccc(NC(=O)c2c[nH]c3c2C(=O)CCC3)cc1
207.9 | 205.5 | 202.7 | – | – | CS(=O)(=O)c1ccc([C@@H](CC2CCCC2)C(=O)Nc2cnccn2)cc1Cl
197.1 | 196.3 | 202.7 | – | – | C[C@@H](Oc1ccc(CNC(=O)c2cccnc2Oc2ccc3c(c2)OCO3)c(F)c1)C(=O)O
– | 235.2 | 227.8 | – | – | Cc1ccc(Nc2ccc(Nc3ccc(C)cc3S(=O)(=O)O)c3c2C(=O)c2ccccc2C3=O)c(S(=O)(=O)O)c1
200.2 | 190.4 | 191.6 | 190.3 | – | O=C(N[C@@H](c1ccccc1)[C@@H]1CCCCN1)c1cccc(C(F)(F)F)c1Cl
165.5 | – | – | – | – | NC(=O)N(O)[C@@H]1COc2cc(OCc3ccccc3)ccc21
191.1 | – | – | – | – | NC(=O)N(O)[C@@H]1C=C[C@H](Oc2cccc(Oc3ccc(F)cc3)c2)C1
– | – | 162.5 | – | – | O=C(O)C1=NN(c2ccc(S(=O)(=O)O)cc2)C(=O)C1
183.7 | – | – | – | – | CCCCCCCCCCCCCC(=O)OCC(O)CO (racemic) [(+/-)-2,3-Dihydroxypropyl tetradecanoate]
